The text below walks through data of PubChem BioAssay (NCI).

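Dose response: 5 concentrations. Exposure: 48 h. Format: 96-well plates. Endpoint: linear interpolation; highest concentration if not reached. The concentration for full growth arrest is given as TGI.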

Test systems include UACC-257 melanoma; SNB-19 CNS; MDA-MB-435; T-47D breast; OVCAR-8 ovarian; SF-295 CNS; OVCAR-5 ovarian; HS 578T breast; RPMI-8226 leukemia; HOP-62 NSCLC; MCF7 breast; OVCAR-3 ovarian; NCI-H460 lung; SR leukemia.
Experiment in all cases: NCI tumour cell line growth inhibition, 48 h

Consider `C=CCN(c1cc(OCc2ccccc2)c(NC(C)=O)cc1[N+](=O)[O-])S(C)(=O)=O`, for which the TGI is > 100 µM in the assay with UACC-257 melanoma; 36.1 µM in the assay with SNB-19 CNS; > 100 µM with MDA-MB-435; > 100 µM in the assay with T-47D breast; 50.3 µM with OVCAR-8 ovarian; 60.4 µM in the assay on SF-295 CNS. The TGI in the assay with OVCAR-5 ovarian was > 100 µM; in the assay with HS 578T breast, 56.7 µM; with RPMI-8226 leukemia it was > 100 µM; with HOP-62 NSCLC it was 53 µM; in the assay with MCF7 breast, > 100 µM; with OVCAR-3 ovarian, > 100 µM. For the same compound, in the assay on NCI-H460 lung, the TGI is > 100 µM.

For `C1#Cc2ccccc2OCCOc2ccccc2C#Cc2ccccc2OCCOc2ccccc21`, the TGI in the assay with UACC-257 melanoma was > 100 µM; with SNB-19 CNS it was > 100 µM; in the assay with MDA-MB-435, > 100 µM; in the assay with T-47D breast it was > 100 µM; in the assay on OVCAR-8 ovarian, 28.3 µM; in the assay on SF-295 CNS it was > 100 µM. For the same compound, the TGI in the assay on OVCAR-5 ovarian is 65.2 µM; in the assay on HS 578T breast, 64.3 µM; in the assay with RPMI-8226 leukemia it was 42.4 µM; with HOP-62 NSCLC it was 23.2 µM; in the assay on MCF7 breast, > 100 µM; with OVCAR-3 ovarian, 39.3 µM. Further, in the assay with NCI-H460 lung, the TGI was > 100 µM.

On to `COc1ccc2c(c1)nc1n2C(N)=Nc2ccccc2S1`, for which the TGI is > 100 µM with UACC-257 melanoma; > 100 µM in the assay with SNB-19 CNS; > 100 µM with MDA-MB-435; > 92.3 µM with T-47D breast; > 82.1 µM in the assay on OVCAR-8 ovarian; > 100 µM with SF-295 CNS. Also, the TGI in the assay with OVCAR-5 ovarian was > 100 µM; in the assay with HS 578T breast it was > 100 µM; in the assay with RPMI-8226 leukemia, > 82.2 µM; with HOP-62 NSCLC it was > 100 µM; in the assay with MCF7 breast, > 100 µM; with OVCAR-3 ovarian, 67.8 µM. For the same compound, the TGI with NCI-H460 lung was > 100 µM.

For the compound `CC(=O)NC1C(OCc2ccccc2)OC(CO)C(O)C1OCC(=O)NC(C)C(=O)NC(CCC(=O)NCCCCCNc1c2ccccc2nc2cccc([N+](=O)[O-])c12)C(N)=O` (stereo not given), the TGI was 0.00332 µM in the assay with UACC-257 melanoma; < 0.0001 µM in the assay with MDA-MB-435; 0.017 µM in the assay on OVCAR-8 ovarian; 0.0265 µM in the assay with SF-295 CNS; < 0.0001 µM in the assay on RPMI-8226 leukemia; < 0.0001 µM in the assay on MCF7 breast.

For the compound `O=C(NNc1cn[nH]c(=O)c1Cl)/C(=C/c1ccc2c(c1)OCO2)NC(=O)c1ccccc1`, the TGI in the assay on UACC-257 melanoma, in the assay on SNB-19 CNS, in the assay with MDA-MB-435, in the assay on T-47D breast, in the assay with OVCAR-8 ovarian and in the assay on SF-295 CNS was > 100 µM in each case. Further, the TGI in the assay on OVCAR-5 ovarian, in the assay with HOP-62 NSCLC, in the assay with MCF7 breast, with OVCAR-3 ovarian and in the assay on NCI-H460 lung was > 100 µM each time.

Turning to `NCCNCCCCCCNC(=O)c1cccc2cc3ccccc3nc12`, the TGI in the assay with UACC-257 melanoma amounted to 15.2 µM; in the assay with SNB-19 CNS, 9.58 µM; with MDA-MB-435 it was 11.9 µM; with T-47D breast it was 21.5 µM; in the assay with OVCAR-8 ovarian, 5.27 µM; in the assay on SF-295 CNS it was 10.6 µM. The TGI in the assay with OVCAR-5 ovarian was 14 µM; in the assay on HS 578T breast, 6 µM; in the assay on RPMI-8226 leukemia, 6.82 µM; in the assay with HOP-62 NSCLC it was 4.68 µM; with MCF7 breast it was 5.39 µM; in the assay with OVCAR-3 ovarian, 7.16 µM. In the assay on NCI-H460 lung, this compound returned a TGI of 2.98 µM.

In the case of `C=C(CC(=O)Nc1ccc(C(=O)OC)o1)C(=O)OC`, the TGI with UACC-257 melanoma is 44.5 µM; in the assay with SNB-19 CNS, > 100 µM; in the assay with MDA-MB-435 it was 59 µM; in the assay on T-47D breast, 54.8 µM; with OVCAR-8 ovarian, > 100 µM; in the assay on SF-295 CNS, > 100 µM. For the same compound, the TGI in the assay on OVCAR-5 ovarian is 35.5 µM; in the assay with HS 578T breast, > 100 µM; with HOP-62 NSCLC, > 100 µM; with MCF7 breast, 54 µM; in the assay with NCI-H460 lung, > 100 µM.

Turning to `O=C1CCCC2=C1C(c1ccc3c(c1)OCO3)Nc1ccc3ccccc3c12` (stereo not given), the TGI with UACC-257 melanoma, with SNB-19 CNS, in the assay with MDA-MB-435, in the assay with OVCAR-8 ovarian, with SF-295 CNS and in the assay on OVCAR-5 ovarian was > 100 µM throughout. For the same compound, the TGI in the assay with HS 578T breast, in the assay with RPMI-8226 leukemia, in the assay with HOP-62 NSCLC, in the assay with MCF7 breast, in the assay with OVCAR-3 ovarian and in the assay with NCI-H460 lung was > 100 µM each time.

Regarding `CCOP(=O)(OCC)/C(=C\N1C(=O)CC(=O)NC1=S)C(=O)OC`, the TGI with UACC-257 melanoma, in the assay on SNB-19 CNS, in the assay with MDA-MB-435, in the assay with T-47D breast, with OVCAR-8 ovarian and in the assay with SF-295 CNS was > 100 µM throughout. The TGI with OVCAR-5 ovarian, in the assay on HOP-62 NSCLC, with MCF7 breast, in the assay on OVCAR-3 ovarian and with NCI-H460 lung was > 100 µM in each case.

In the case of `COc1cccc2c1C1(O)C2CCCC12OCCCO2` (stereo not given), the TGI in the assay with UACC-257 melanoma, in the assay with SNB-19 CNS, in the assay with OVCAR-8 ovarian, in the assay on SF-295 CNS, with OVCAR-5 ovarian and in the assay with RPMI-8226 leukemia was > 100 µM each time. In addition, the TGI in the assay on HOP-62 NSCLC, in the assay on OVCAR-3 ovarian and with NCI-H460 lung was > 100 µM in each case.

On to `CC(=O)NC1=C(C)C(=O)c2c(nc3n2CCC3O)C1=O` (stereo not given), for which the TGI with UACC-257 melanoma was > 59.9 µM; with SNB-19 CNS, > 100 µM; in the assay on OVCAR-8 ovarian it was 68.1 µM; with SF-295 CNS, > 100 µM; in the assay with OVCAR-5 ovarian, > 100 µM; in the assay on SR leukemia, 35 µM. Further, the TGI was 50.6 µM with RPMI-8226 leukemia, > 100 µM in the assay with HOP-62 NSCLC, > 46.1 µM in the assay on OVCAR-3 ovarian and > 100 µM in the assay on NCI-H460 lung.

Turning to `COc1ccc(/C=C2\CC3C4CC=C5C[C@@H](O)CC[C@]5(C)C4CC[C@]3(C)\C2=N\O)cc1OC` (stereo not given in full), the TGI was > 100 µM with UACC-257 melanoma; > 100 µM in the assay on SNB-19 CNS; > 100 µM in the assay on MDA-MB-435; > 100 µM in the assay on T-47D breast; > 100 µM with OVCAR-8 ovarian; 80.9 µM with SF-295 CNS. The TGI in the assay with OVCAR-5 ovarian was > 100 µM; in the assay on HS 578T breast, > 100 µM; in the assay with RPMI-8226 leukemia it was > 100 µM; with HOP-62 NSCLC, > 100 µM; with MCF7 breast, > 100 µM; in the assay with OVCAR-3 ovarian it was 8.74 µM. In addition, the TGI in the assay with NCI-H460 lung is > 100 µM.
